Results reported in patent publication US7825279B2, “Fused ring dicationic anti-protozoan agents and their prodrugs” (The University of North Carolina at Chapel Hill, priority 2003, dated 2010).
pIC50: −log10 of the molar value. Like-named read-outs stand apart in the source and are kept apart here.

How the values were obtained:
poly dA-dT = assay: DNA ΔTm poly dA-dT; assay type: binding; design: unit not given here
[1] = system: Trypanosoma brucei rhodesiense; assay: in vitro IC50 versus Trypanosoma brucei rhodesiense (T.b.r.); assay type: cell-based
Plasmodium falciparum = assay: in vitro IC50 versus Plasmodium falciparum (P.f.); assay type: cell-based
[2] = system: virulent STIP90° strain of T.b.r.; assay: in vivo T.b.r. mouse model; conditions: for In vivo T.b.r. Cures: cures/animals
[3] = Trypanosoma brucei, RHODESIENSE
[4] = Plasmodium falciparum, in vitro, read-out: P.f. IC50

Row | Structure (SMILES) | DNA ΔTm poly dA-dT (poly dA-dT) | pIC50 [1, 3] | pIC50 (Plasmodium falciparum; Plasmodium falciparum, in vitro, read-out: IC-50 versus Plasmodium falciparum (p.f.)) | pIC50 (Plasmodium falciparum; [4]) | In vivo T.b.r. survival days [2] [days] | In vivo T.b.r. Cures [2] | pIC50 ([1]; Dihydrochloride) | pIC50 [1] | pIC50 (Plasmodium falciparum; in vitro, read-out: P.f. IC50) | pIC50 (Plasmodium falciparum; Plasmodium falciparum, read-out: P.f. IC50)
1 | Cl.Cl.N=C(N)Nc1ccc2c(c1)Cc1cc(NC(=N)N)ccc1-2 [Compound 5a, 2,7-Bis-guanidino-9H-fluorene Dihydrochloride] | 13.6 | 7.62 | ≥ 8.00 | 8.64 | 6 | 0/4 | – | – | – | –
2 | Cl.Cl.N=C(N)Nc1ccc2c(c1)C(=O)c1cc(NC(=N)N)ccc1-2 [Compound 5b, 2,7-Bis-guanidinofluoren-9-one Dihydrochloride] | 6.1 | ≥ 7.89 | – | 6.57 | 50.75 | 2/4 | 8.14 | – | – | –
3 | Cl.Cl.N=C(N)Nc1ccc2c(c1)C(=O)c1cc(NC(=N)N)ccc1C2=O [Compound 5c, 2,7-Bis-guanidinoanthraquinone Dihydrochloride] | 7.2 | 6.89 | – | 7.63 | 27 | 0/4 | – | – | – | –
4 | Cl.Cl.Cl.N=C(N)Nc1ccc2cc3ccc(NC(=N)N)cc3nc2c1 [Compound 5d, 3,6-bis-guanidinoacridine Trihydrochloride] | 7.7 | 7.17 | – | 6.64 | 16.25 | 0/4 | – | – | – | –
5 | CCOC(=O)NC(=N)Nc1ccc2c(c1)Cc1cc(NC(=N)NC(=O)OCC)ccc1-2 [Compound 7a, 2,7-Bis(N″-ethoxycarbonyl)guanidino-9H-fluorene] | 0.3 | – | – | – | 18.75 | 0/4 | – | 5.85 | 5.68 | –
6 | CCOC(=O)NC(=N)Nc1ccc2c(c1)C(=O)c1cc(NC(=N)NC(=O)OCC)ccc1-2 [Compound 7b, 2,7-Bis(N″-ethoxycarbonyl)guanidinofluoren-9-one] | −0.3 | – | – | – | 6 | 0/4 | – | 5.92 | 5.49 | –
7 | CCOC(=O)NC(=NC)Nc1ccc2c(c1)Cc1cc(NC(=NC)NC(=O)OCC)ccc1-2 [Compound 7c, 2,7-Bis(N″-ethoxycarbonyl-N′-methyl)guanidino-9H-fluorene] | – | – | – | – | – | – | – | 5.54 | 6.00 | –
8 | CCOC(=O)NC(=NC(C)C)Nc1ccc2c(c1)Cc1cc(NC(=NC(C)C)NC(=O)OCC)ccc1-2 [Compound 7d, 2,7-Bis(N″-ethoxycarbonyl-N′-iso-propyl)guanidino-9H-fluorene] | −0.5 | – | – | – | 17.75 | 0/4 | – | 5.60 | 5.20 | –
9 | CNC(=N)Nc1ccc2c(c1)Cc1cc(NC(=N)NC)ccc1-2 [Compound 8a, 2,7-Bis(N′-methyl)guanidino-9H-fluorene] | 10.1 | – | – | – | 52 | 3/4 | – | 7.89 | 8.00 | –
10 | CC(C)NC(=N)Nc1ccc2c(c1)Cc1cc(NC(=N)NC(C)C)ccc1-2 [Compound 8b, 2,7-Bis(N-iso-propyl)guanidino-9H-fluorene] | 9.3 | – | – | – | 60 | 4/4 | – | 7.39 | 7.45 | –
11 | c1ccc(N=Nc2ccc3c(c2)Cc2cc(N=Nc4ccccc4)ccc2-3)cc1 [Compound 9a, 2,7-Bis[(phenylimino)amino]-9H-fluorene] | 22 | 6.53 | – | – | 7 | 0/4 | – | – | – | 6.32
12 | c1ccc(N=Nc2ccc3c(c2)Cc2cc(N=Nc4ccccn4)ccc2-3)nc1 [Compound 9b, 2,7-Bis[(2-pyridylimino)amino]-9H-fluorene] | 15.2 | 6.05 | – | 5.92 | – | – | – | – | – | –
